Data on four molecules can be found in patent US6355428B1, “Nucleic acid ligand interaction assays” (Genelabs Technologies, Inc., priority 1998, dated 2002).

For assay [1], the system named is RNA 5′-rCUAGAUCUGA-3′ (SEQ ID NO: 23) double stranded RNA probe. The assay can be described thus: Fluorescence quenching direct binding assay, RNA. To be noted: increasing bekanomycin. How it is done: (§1) The specific examples described in this section employ fluorescence quenching as the detection system. In these examples, because conditions are adjusted to maintain the oligonucleotides in single-stranded form in the absence of the ligand, the assay starts with the system at a high or maximum level of fluorescence, and fluorescence generally decreases, depending on binding affinity, as the ligand is added.
In the Figure legends, RNA oligonucleotides are denoted by an “r” at the beginning of the sequence, and single stranded controls by “ss” at the end of the sequence. These single stranded sequence, are used alone in control experiments, which thus employ only an “F” strand and no complementary quenching strand. Any quenching of fluorescence that is not due to hybridization can thus be acounted for. Maximum quenching expected on complete hybridization of these oligonucleotides is 85-90%; therefore some signal remains after complete hybridization. The signal is plotted so that it is normalized to the control signal in the absence of ligand.
Netropsin has been shown in previous studies to bind preferentially to A/T rich regions of DNA. […] Netropsin also binds well to the sequence 5′-GCGGTATTT-3′ (SEQ ID NO: 12), which is a useful “indicator” probe (as discussed below), having both C/G and A/T rich sequences. […]

In assay [2] the test system is F/Q indicator oligonucleotide pairs (Table I). As to the kind of experiment: Fluorescence quenching direct binding assay, panel of F/Q indicator oligonucleotide pairs. To be noted: concentrations up to 5 μM; tRNA added. How it is done:
as §1
In the Figure legends, RNA oligonucleotides are denoted by an “r” at the beginning of the sequence, and single stranded controls by “ss” at the end of the sequence. These single stranded sequence, are used alone in control experiments, which thus employ only an “F” strand and no complementary quenching strand. Any quenching of fluorescence that is not due to hybridization can thus be acounted for. Maximum quenching expected on complete hybridization of these oligonucleotides is 85-90%; therefore some signal remains after complete hybridization. […]
According to the general method described above, increasing amounts of netropsin or actinomycin, respectively, were added to mixtures of selected F/Q indicator oligonucleotide pairs, whose sequences are shown in the legends of FIGS. 1 and 3. […] The Figures show the level of fluorescence observed, relative to a control having no added drug, for each indicator pair (or single strand) as the level of added drug was increased. […]

Assay [3] concerns A/T rich, G/C rich and mixed sequence DNA oligonucleotides. As to the kind of experiment: SPA direct binding assay, sequence preference over panel of indicator oligonucleotides. To be noted: A/T rich 5′-AAAATAATAAAG, G/C rich 5′-GGCGCGG, mixed 5′-GTTGCAGATC; increasing drug. The text has this:
This technology can be applied to studies of ligand binding as disclosed herein. […] These beads are impregnated with scintillant. The second oligonucleotide is labeled with a weak β-emitter, such as ^3H or ^33P. The radioactive second oligonucleotide is mixed with a solution of the beads under conditions at which the first and second oligonucleotides exist primarily as single strands, as described above. The signal will thus be low, as the oligonucleotides are non-hybridized. When ligand is added, the duplex form is stabilized, and the increased proximity of the radioactive isotope (e.g., ^3H, ^33P) in the second oligonucleotide causes the bead to which the first oligonucleotide is bound to scintillate. A signal thus indicates the presence of an effective binding ligand molecule; test sequences giving higher signals indicate the relative preference for different sequences.
Indicator oligonucleotides as shown in Table 1 were used in this assay, as shown in Table II and FIGS. 4A-E. One strand of each duplex was labeled with biotin at the 5′-end, and the complementary strand was 3′-labeled with ^33P. The two complementary strands were incubated with streptavidin-coated SPA beads (Amersham, Arlington Heights, Ill.) at room temperature in a buffer containing 20 mM HEPES, pH 7.5, 0.1 mM EDTA, and 20 mM NaCl. In the absence of ligand, and under these conditions, the oligonucleotides exist in single-stranded conformation. As a result, the oligonucleotide containing the radioactive label is not in close proximity to the SPA bead, and the light given off by the beads is low, i.e., at background. As a duplex-stabilizing ligand is added, the radioactive ^33P is brought into close proximity to the SPA bead, and the light emitted from the SPA bead increases.

The structures appear in SMILES notation. Starred links: 1 amine or outer side, 2 acyl side, 3 side chain; linkers in the order of their positions; H or OH if unused. Positions of bridges follow the written chain, without caps; N, C: chain ends. Non-standard residues stand in square brackets, D forms with d. Residues, ends and D or L forms follow the SMILES beside them. Chains are numbered I, II in the order given. Actinocin(9to1) = Cc1c2oc3c(C)ccc(C(=O)[*:1])c3nc-2c(C(=O)[*:2])c(N)c1=O; NMeV = CN[C@H](C(=O)O)C(C)C; Sar = CNCC(=O)O

On to `NCC1OC(OC2C(N)CC(N)C(OC3OC(CO)C(O)C(N)C3O)C2O)C(N)C(O)C1O` (centres unmarked) [Bekanomycin, bekanomycin], for which, in assay [1], the “binding preference over all other test oligonucleotides (FIG. 3C)” value is “very strong preference for the double stranded RNA probe”. Turning to `Cc1c2oc3c(C)ccc(C(=O)N[C@@H]4C(=O)N[C@H](C(C)C)C(=O)N5CCC[C@H]5C(=O)N(C)CC(=O)N(C)[C@@H](C(C)C)C(=O)O[C@@H]4C)c3nc-2c(C(=O)N[C@@H]2C(=O)N[C@H](C(C)C)C(=O)N3CCC[C@H]3C(=O)N(C)CC(=O)N(C)[C@@H](C(C)C)C(=O)O[C@@H]2C)c(N)c1=O` [actinomycin D] (I: T[dV]P[Sar][NMeV] / II: T[dV]P[Sar][NMeV]; ester I:1-I:C, II:1-II:C; linker I:N-II:N via Actinocin(9to1)), the “sequences bound (FIG. 3B)” value in assay [2] was “binding only to the C/G containing sequences (SEQ ID NOS: 6, 8, and 12)”. Besides, in assay [3], the “sequence preference of binding (FIGS. 4A-E)” value (from here on “sequence preference of binding”) is reported as “preferred GC-rich sequences”. `CC(=O)NCC(=O)O.CC(=O)NCC(=O)O.N=C(N)c1ccc(N=NNc2ccc(C(=N)N)cc2)cc1` [berenil]: the “sequence preference of binding” value in assay [3] is given as “no strong preference”. With `COC(C(=O)C(O)C(C)O)C1Cc2cc3cc(OC4CC(OC5CC(O)C(OC)C(C)O5)C(OC(C)=O)C(C)O4)c(C)c(O)c3c(O)c2C(=O)C1OC1CC(OC2CC(OC3CC(C)(O)C(OC(C)=O)C(C)O3)C(O)C(C)O2)C(O)C(C)O1` (centres unmarked) [chromomycin A], in assay [3], the “sequence preference of binding” value is given as “preferred GC-rich sequences”.
